The results in this text go back to patent US8975291B2, “Indoles” (GlaxoSmithKline LLC, priority 2010, dated 2015).

T1 sequence (Q15910 whole entry): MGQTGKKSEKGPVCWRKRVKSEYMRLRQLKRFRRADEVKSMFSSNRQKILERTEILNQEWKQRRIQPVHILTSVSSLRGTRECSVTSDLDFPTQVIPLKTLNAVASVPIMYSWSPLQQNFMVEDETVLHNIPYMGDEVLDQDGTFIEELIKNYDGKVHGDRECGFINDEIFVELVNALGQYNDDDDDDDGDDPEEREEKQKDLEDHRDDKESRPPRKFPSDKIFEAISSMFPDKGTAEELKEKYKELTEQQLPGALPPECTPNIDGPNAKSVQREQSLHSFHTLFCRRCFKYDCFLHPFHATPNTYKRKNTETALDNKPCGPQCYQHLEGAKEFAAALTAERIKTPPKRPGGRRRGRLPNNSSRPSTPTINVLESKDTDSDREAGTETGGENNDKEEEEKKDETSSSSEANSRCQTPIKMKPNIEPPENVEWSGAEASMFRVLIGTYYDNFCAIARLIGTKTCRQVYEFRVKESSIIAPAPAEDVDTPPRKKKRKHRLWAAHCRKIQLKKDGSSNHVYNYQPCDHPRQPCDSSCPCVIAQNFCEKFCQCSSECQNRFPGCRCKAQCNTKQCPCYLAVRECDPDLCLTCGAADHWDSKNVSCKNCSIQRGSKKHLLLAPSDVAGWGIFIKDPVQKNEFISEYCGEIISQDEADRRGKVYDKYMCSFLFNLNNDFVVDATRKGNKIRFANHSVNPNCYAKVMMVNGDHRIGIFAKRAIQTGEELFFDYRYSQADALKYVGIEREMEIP
T1 sequence (O75530 whole entry partner): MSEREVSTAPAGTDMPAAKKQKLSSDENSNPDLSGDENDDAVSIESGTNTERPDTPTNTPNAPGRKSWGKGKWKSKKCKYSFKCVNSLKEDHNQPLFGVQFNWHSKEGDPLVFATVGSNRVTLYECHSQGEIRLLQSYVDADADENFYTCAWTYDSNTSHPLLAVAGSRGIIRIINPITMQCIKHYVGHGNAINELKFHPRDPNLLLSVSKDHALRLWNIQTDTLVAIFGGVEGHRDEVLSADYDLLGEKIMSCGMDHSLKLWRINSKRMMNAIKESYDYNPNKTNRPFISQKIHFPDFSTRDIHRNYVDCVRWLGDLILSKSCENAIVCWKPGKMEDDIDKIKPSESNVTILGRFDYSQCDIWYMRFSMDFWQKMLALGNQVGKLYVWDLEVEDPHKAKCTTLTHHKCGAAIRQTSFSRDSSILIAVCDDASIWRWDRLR
T1 sequence (Q15022 whole entry partner): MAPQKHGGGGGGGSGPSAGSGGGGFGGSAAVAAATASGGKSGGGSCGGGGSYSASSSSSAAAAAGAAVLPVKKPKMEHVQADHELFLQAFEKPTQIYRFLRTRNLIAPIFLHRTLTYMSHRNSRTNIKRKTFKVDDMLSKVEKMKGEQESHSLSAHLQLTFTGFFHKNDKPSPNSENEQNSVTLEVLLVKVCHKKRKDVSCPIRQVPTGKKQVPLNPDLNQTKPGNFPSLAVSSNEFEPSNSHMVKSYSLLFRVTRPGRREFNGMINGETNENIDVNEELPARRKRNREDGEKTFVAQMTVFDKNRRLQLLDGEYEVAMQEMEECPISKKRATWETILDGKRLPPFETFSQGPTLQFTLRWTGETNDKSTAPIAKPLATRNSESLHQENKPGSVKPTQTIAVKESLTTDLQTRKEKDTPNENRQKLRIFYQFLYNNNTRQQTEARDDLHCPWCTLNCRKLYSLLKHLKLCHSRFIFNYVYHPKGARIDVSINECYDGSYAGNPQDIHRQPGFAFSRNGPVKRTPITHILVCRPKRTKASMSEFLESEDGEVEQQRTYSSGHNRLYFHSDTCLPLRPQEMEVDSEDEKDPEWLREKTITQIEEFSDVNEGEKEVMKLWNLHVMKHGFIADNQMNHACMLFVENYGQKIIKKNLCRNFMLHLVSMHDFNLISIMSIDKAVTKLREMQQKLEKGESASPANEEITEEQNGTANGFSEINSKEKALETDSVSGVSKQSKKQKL
T1 sequence (Q09028 whole entry partner): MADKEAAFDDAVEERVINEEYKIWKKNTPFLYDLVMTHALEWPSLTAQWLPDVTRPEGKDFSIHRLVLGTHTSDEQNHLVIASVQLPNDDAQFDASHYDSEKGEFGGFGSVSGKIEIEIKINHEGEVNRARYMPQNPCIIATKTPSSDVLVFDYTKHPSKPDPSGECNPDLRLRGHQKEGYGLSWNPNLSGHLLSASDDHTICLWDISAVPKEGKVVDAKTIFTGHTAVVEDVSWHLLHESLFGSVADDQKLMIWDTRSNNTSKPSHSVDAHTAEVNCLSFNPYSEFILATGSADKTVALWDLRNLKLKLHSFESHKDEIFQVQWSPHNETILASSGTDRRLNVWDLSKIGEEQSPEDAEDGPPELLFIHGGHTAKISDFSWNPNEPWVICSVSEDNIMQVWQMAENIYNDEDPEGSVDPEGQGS
T1 sequence (Q6ZN18 whole entry partner): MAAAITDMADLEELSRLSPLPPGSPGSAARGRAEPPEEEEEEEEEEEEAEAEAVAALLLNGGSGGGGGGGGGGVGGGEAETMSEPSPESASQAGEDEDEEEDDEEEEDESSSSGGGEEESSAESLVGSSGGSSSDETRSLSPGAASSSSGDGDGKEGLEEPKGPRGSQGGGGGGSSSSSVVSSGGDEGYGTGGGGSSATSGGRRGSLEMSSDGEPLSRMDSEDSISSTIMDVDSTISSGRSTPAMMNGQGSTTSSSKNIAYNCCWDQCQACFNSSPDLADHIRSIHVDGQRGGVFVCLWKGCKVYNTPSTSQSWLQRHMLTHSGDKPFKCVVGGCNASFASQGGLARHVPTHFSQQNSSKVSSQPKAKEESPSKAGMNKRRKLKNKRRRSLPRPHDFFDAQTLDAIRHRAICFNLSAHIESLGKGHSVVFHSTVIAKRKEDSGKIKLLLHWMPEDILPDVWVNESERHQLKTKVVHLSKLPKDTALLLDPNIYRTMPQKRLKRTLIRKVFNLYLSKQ

One test concerns the target T1, EZH2 within the PRC2 complex (Homo sapiens, UniProt Q15910).
T1 construct: FLAG; made in house; host or cells: Sf9 cells
Nature of the test: EZH2 methyltransferase scintillation proximity assay (SPA) with PRC2 complex. It is filed as biochemical. The conditions noted are these: 3H-SAM methyl transfer to Histone H3 of HeLa mononucleosomes; read-out: EZH2 pIC50 (converted). How it is done: Compounds contained herein were evaluated for their ability to inhibit the methyltransferase activity of EZH2 within the PRC2 complex. Human PRC2 complex was prepared by co-expressing each of the 5 member proteins (FLAG-EZH2, EED, SUZ12, RbAp48, AEBP2) in Sf9 cells followed by co-purification. Enzyme activity was measured in a scintillation proximity assay (SPA) where a tritiated methyl group is transferred from 3H-SAM to a lysine residue on Histone H3 of a mononucleosome, purified from HeLa cells. Mononucleosomes were captured on SPA beads and the resulting signal is read on a ViewLux plate reader.
Part A. Compound Preparation
• 1. Prepare 10 mM stock of compounds from solid in 100% DMSO. • 2. Set up an 11-point serial dilution (1:3 dilution, top concentration 10 mM) in 100% DMSO for each test compound in a 384 well plate leaving columns 6 and 18 for DMSO controls. • 3. Dispense […] of compound from the dilution plate into reaction plates (Grenier Bio-One, 384-well, Cat #784075). Part B. Reagent Preparation Prepare the following solutions: • 1. 50 mM Tris-HCl, pH 8: Per 1 L of base buffer, combine 1 M Tris-HCl, pH 8 (50 mL) and distilled water (950 mL). • 2. […] 2× Enzyme Solution: Per 10 mL of 2× Enzyme Solution, combine 1× Assay Buffer and PRC2 complex to provide a final enzyme concentration of 10 nM. • 4. SPA Bead Suspension: Per 1 mL of SPA Bead Suspension, combine PS-PEI coated LEADSeeker beads (40 mg) and ddH2O (1 mL) to provide a final concentration of 40 mg/mL. • 5. 2× Substrate Solution: Per 10 mL of 2× Substrate Solution, combine 1× Assay Buffer (9728.55 uL), 800 ug/mL mononucleosomes (125 uL), 1 mM cold SAM (4 uL), and 7.02 uM 3H-SAM (142.45 uL; 0.55 mCi/mL) to provide a final concentration of 5 ug/mL nucleosomes, 0.2 uM cold SAM, and 0.05 uM 3H-SAM. • 6. 2.67× Quench/Bead Mixture: Per 10 mL of 2.67× Quench/Bead Mixture, combine ddH2O (9358 uL), 10 mM cold SAM (267 uL), 40 mg/mL Bead Suspension (375 uL) to provide a final concentration of 100 uM cold SAM and 0.5 mg/mL SPA beads. Part C. Assay Reaction in 384-well Grenier Bio-One Plates Compound Addition • 1. Dispense […] of 100× Compound to test wells (as noted above). • 2. Dispense […] of 100% DMSO to columns 6 & 18 for high and low controls, respectively. Assay • 1. […] Dispense 5 uL/well of 2× Enzyme Solution to columns 1-17, 19-24. • 3. Spin assay plates for ˜1 minute at 500 rpm. • 4. Stack the assay plates, covering the top plate. • 5. Incubate the compound/DMSO with the enzyme for 30 minutes at room temperature. • 6. Dispense 5 uL/well of 2× Substrate Solution to columns 1-24. • 7. Spin assay plates for ˜1 minute at 500 rpm. • 8. Stack the assay plates, covering the top plate. • 9. Incubate the assay plates at room temperature for 1 hour. Quench/Bead Addition • 1. Dispense 5 uL/well of the 3× Quench/Bead Mixture to columns 1-24. • 2. Seal the top of each assay plate with adhesive TopSeal. • 3. Spin assay plates for ˜1 minute at 500 rpm. • 4. Equilibrate the plates for >20 min. Read Plates • 1. Read the assay plates on the Viewlux Plate Reader utilizing the 613 nm emission filter with a 300 s read time. Reagent addition can be done manually or with automated liquid handler. • The final DMSO concentration in this assay is 1%. • The positive control is in column 6; negative control is in column 18. • Final starting concentration of compounds is 100 μM. Part D. Data Analysis
Percent inhibition was calculated relative to the DMSO control for each compound concentration and the resulting values were fit using standard IC50 fitting parameters within the ABASE data fitting software package.
For `Cc1cc(C)c(CNC(=O)c2cc(-c3ccc(CN4C[C@@H](C)O[C@@H](C)C4)nc3)cc3c2c(C)cn3C(C)C)c(=O)[nH]1` [Example 348, 6-(6-{[(2R,6S)-2,6-dimethyl-4-morpholinyl]methyl}-3-pyridinyl)-N-[(4,6-dimethyl-2-oxo-1,2-dihydro-3-pyridinyl)methyl]-3-methyl-1-(1-methylethyl)-1H-indole-4-carboxamide], the IC50 was 0.0363 µM.
Same read-out and setting: with `Cc1cc(C)c(CNC(=O)c2cc(-c3ccc(CN4CCN(C)CC4)nc3)cc3c2c(C)cn3C(C)C)c(=O)[nH]1` [Example 349, N-[(4,6-dimethyl-2-oxo-1,2-dihydro-3-pyridinyl)methyl]-3-methyl-1-(1-methylethyl)-6-{6-[(4-methyl-1-piperazinyl)methyl]-3-pyridinyl}-1H-indole-4-carboxamide] the figure was 0.0251 µM; with `Cc1cc(C)c(CNC(=O)c2cc(-c3ccc(CN4CCOCC4)nc3)cc3c2c(C)cn3C(C)C)c(=O)[nH]1` [Example 350, N-[(4,6-dimethyl-2-oxo-1,2-dihydro-3-pyridinyl)methyl]-3-methyl-1-(1-methylethyl)-6-[6-(4-morpholinylmethyl)-3-pyridinyl]-1H-indole-4-carboxamide], 0.0229 µM.
In the case of `Cc1cc(C)c(CNC(=O)c2cc(B(O)O)cc3c2c(C)cn3C(C)C)c(=O)[nH]1` [Example 358, [4-({[(4,6-dimethyl-2-oxo-1,2-dihydro-3-pyridinyl)methyl]amino)carbonyl)-3-methyl-1-(1-methylethyl)-1H-indol-6-yl]boronic acid], the IC50 was 0.468 µM.
Still for that read-out and setting: to `Cc1cc(C)c(CNC(=O)c2cc(-c3ccc(CO)nc3)cc3c2c(C)cn3C(C)C)c(=O)[nH]1` [Example 359, N-[(4,6-dimethyl-2-oxo-1,2-dihydro-3-pyridinyl)methyl]-6-[6-(hydroxymethyl)-3-pyridinyl]-3-methyl-1-(1-methylethyl)-1H-indole-4-carboxamide] belongs 0.0589 µM.
The same measure, in the same setting: with `Cc1cc(C)c(CNC(=O)c2cc(C3COC3)cc3c2c(C)cn3C(C)C)c(=O)[nH]1` [Example 360, N-[(4,6-dimethyl-2-oxo-1,2-dihydro-3-pyridinyl)methyl]-3-methyl-1-(1-methylethyl)-6-(3-oxetanyl)-1H-indole-4-carboxamide] the figure was 0.288 µM.

Still in this test, the particulars now being: EZH2 inhibition, foregoing or analogous assay; unit inferred; read-out: IC50.
As to `Cc1cc(C)c(CNC(=O)c2cc(Br)cc3c2c(C)cn3CC(C)N(C)C)c(=O)[nH]1` (centres unmarked) [Ex 78, 6-bromo-N-((4,6-dimethyl-2-oxo-1,2-dihydropyridin-3-yl)methyl)-1-(2-(dimethylamino)propyl)-3-methyl-1H-indole-4-carboxamide], the IC50 is 1.8 µM.
Still for that read-out and setting: with `Cc1cc(C)c(CNC(=O)c2cc(-c3ccc(OCCN(C)C)cc3)cc3c2c(C)cn3C(C)C)c(=O)[nH]1` [Ex 174, 6-(4-{[2-(dimethylamino)ethyl]oxy}phenyl)-N-[(4,6-dimethyl-2-oxo-1,2-dihydro-3-pyridinyl)methyl]-3-methyl-1-(1-methylethyl)-1H-indole-4-carboxamide] the figure was 0.018 µM; with `Cc1cc(C)c(CNC(=O)c2cc(-c3ccc4[nH]cnc4c3)cc3c2c(C)cn3C(C)C)c(=O)[nH]1` [Ex 211, 6-(1H-benzimidazol-5-yl)-N-[(4,6-dimethyl-2-oxo-1,2-dihydro-3-pyridinyl)methyl]-3-methyl-1-(1-methylethyl)-1H-indole-4-carboxamide], 0.014 µM; with `Cc1cc(C)c(CNC(=O)c2cc(-c3ccc4c(N)n[nH]c4c3)cc3c2c(C)cn3C(C)C)c(=O)[nH]1` [Ex 212, 6-(3-amino-1H-indazol-6-yl)-N-[(4,6-dimethyl-2-oxo-1,2-dihydro-3-pyridinyl)methyl]-3-methyl-1-(1-methylethyl)-1H-indole-4-carboxamide], 0.009 µM.
In the case of `Cc1cc(Cn2cccn2)c(CNC(=O)c2cc(Br)cc3c2c(C)cn3C(C)C)c(=O)[nH]1` [Ex 234, 6-bromo-3-methyl-1-(1-methylethyl)-N-{[6-methyl-2-oxo-4-(1H-pyrazol-1-ylmethyl)-1,2-dihydro-3-pyridinyl]methyl}-1H-indole-4-carboxamide], the IC50 stood at 1 µM.
On the same count and under the same terms, with `Cc1cc(C)c(CNC(=O)c2cc(-c3cc4[nH]ncc4cn3)cc3c2c(C)cn3C(C)C)c(=O)[nH]1` [Ex 244, N-((4,6-dimethyl-2-oxo-1,2-dihydropyridin-3-yl)methyl)-1-isopropyl-3-methyl-6-(1H-pyrazolo[4,3-c]pyridin-6-yl)-1H-indole-4-carboxamide] the figure was 0.029 µM; with `CCC(C)n1cc(C)c2c(C(=O)NCc3c(C)cc(C)[nH]c3=O)cc(Br)cc21` (centres unmarked) [Ex 266, 6-bromo-1-(sec-butyl)-N-((4,6-dimethyl-2-oxo-1,2-dihydropyridin-3-yl)methyl)-3-methyl-1H-indole-4-carboxamide], 0.025 µM.
Still for that read-out and setting: to `CC[C@H](C)n1cc(C)c2c(C(=O)NCc3c(C)cc(C)[nH]c3=O)cc(Br)cc21` [Ex 267, (S)-6-bromo-1-(sec-butyl)-N-((4,6-dimethyl-2-oxo-1,2-dihydropyridin-3-yl)methyl)-3-methyl-1H-indole-4-carboxamide] belongs 0.02 µM; to `CC[C@@H](C)n1cc(C)c2c(C(=O)NCc3c(C)cc(C)[nH]c3=O)cc(Br)cc21` [Ex 268, (R)-6-Bromo-1-(sec-butyl)-N-((4,6-dimethyl-2-oxo-1,2-dihydropyridin-3-yl)methyl)-3-methyl-1H-indole-4-carboxamide], 0.04 µM; to `CCC(C)n1cc(C)c2c(C(=O)NCc3c(C)cc(C)[nH]c3=O)cc(-c3cccc(CN(C)C)c3)cc21` (centres unmarked) [Ex 272, 1-(sec-Butyl)-N-((4,6-dimethyl-2-oxo-1,2-dihydropyridin-3-yl)methyl)-6-(3-((dimethylamino)methyl)phenyl)-3-methyl-1H-indole-4-carboxamide], 0.013 µM.
Turning to `CC[C@H](C)n1cc(C)c2c(C(=O)NCc3c(C)cc(C)[nH]c3=O)cc(-c3cccc(CN(C)C)c3)cc21` [Ex 273, 6-{3-[(Dimethylamino)methyl]phenyl}-N-[(4,6-dimethyl-2-oxo-1,2-dihydro-3-pyridinyl)methyl]-3-methyl-1-[(1S)-1-methylpropyl]-1H-indole-4-carboxamide], the IC50 was 0.01 µM.
Still for that read-out and setting: with `CC[C@@H](C)n1cc(C)c2c(C(=O)NCc3c(C)cc(C)[nH]c3=O)cc(-c3cccc(CN(C)C)c3)cc21` [Ex 274, 6-{3-[(dimethylamino)methyl]phenyl}-N-[(4,6-dimethyl-2-oxo-1,2-dihydro-3-pyridinyl)methyl]-3-methyl-1-[(1R)-1-methylpropyl]-1H-indole-4-carboxamide] the figure was 0.032 µM.
`Cc1cc(C)c(CNC(=O)c2cc(-c3ccc(N4CCNCC4)nc3)cc3c2c(C)cn3C2CCCC2)c(=O)[nH]1` [Ex 275, 1-cyclopentyl-N-((4,6-dimethyl-2-oxo-1,2-dihydropyridin-3-yl)methyl)-3-methyl-6-(6-(piperazin-1-yl)pyridin-3-yl)-1H-indole-4-carboxamide]: the IC50 stood at 0.003 µM.
Still for that read-out and setting: with `Cc1cc(C)c(CNC(=O)c2cc(-c3ccc(N4CCNC(C)(C)C4)nc3)cc3c2c(C)cn3C(C)C)c(=O)[nH]1` [Ex 339, N-[(4,6-dimethyl-2-oxo-1,2-dihydro-3-pyridinyl)methyl]-6-[6-(3,3-dimethyl-1-piperazinyl)-3-pyridinyl]-3-methyl-1-(1-methylethyl)-1H-indole-4-carboxamide] the figure was 0.013 µM.
